Data set [1] deals with T1, human cloned dopamine D4.2 receptors (Homo sapiens, UniProt P21917, DEL265-296).
T1 construct: expressed in transfected cells; host or cells: CHO cells
T1 sequence (P21917 with tags, fused parts or gaps DEL265-296): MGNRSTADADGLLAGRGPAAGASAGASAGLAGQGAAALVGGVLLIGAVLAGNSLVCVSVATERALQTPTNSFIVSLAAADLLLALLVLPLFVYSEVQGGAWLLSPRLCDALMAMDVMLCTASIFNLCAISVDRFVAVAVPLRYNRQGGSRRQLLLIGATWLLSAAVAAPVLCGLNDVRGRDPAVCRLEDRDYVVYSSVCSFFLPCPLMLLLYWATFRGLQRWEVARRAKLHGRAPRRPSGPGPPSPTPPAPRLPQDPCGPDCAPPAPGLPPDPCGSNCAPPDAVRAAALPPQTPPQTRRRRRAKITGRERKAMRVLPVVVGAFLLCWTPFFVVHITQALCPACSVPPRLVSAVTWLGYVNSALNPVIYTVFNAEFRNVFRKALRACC
Kind of data set: Inhibition of the binding of [3H]YM-09151-2 to human dopamine D4.2 receptors. The following applies: [3H]YM-09151-2 0.06 nM, membranes of CHO-cells; for D4-binding (% inhibition): at 50 nM. The protocol: Inhibition of the Binding of [^3H]YM-09151-2 to Human Dopamine D4.2 Receptors
By this method, the inhibition by drugs of the binding of [^3H]YM-09151-2 (0.06 nM) to membranes of human cloned dopamine D4.2 receptors expressed in CHO-cells is determined in vitro. Method modified from NEN Life Science Products, Inc., technical data certificate PC2533-10/96.

Another data set has as its target T2, 5-HT2A receptors (Rattus norvegicus, UniProt P14842).
T2 construct: membranes from rat brain (cortex) in vitro; from tissue; host or cells: rat brain cortex membranes
Kind of data set: Inhibition of the binding of [3H]Ketanserin to 5-HT2A receptors. The following applies: for 5-HT2A-binding (% inhibition): at 100 nM; for inhibition at 0.1 µM: read-out: 5-HT2A-binding (% inhibition). On the procedure: Inhibition of the Binding of [^3H]Ketanserin to 5-HT2A Receptors
The compounds were tested with respect to their affinity for 5-HT2A receptors by determining their ability to inhibit the binding of [^3H]Ketanserin (0.50 nM) to membranes from rat brain (cortex) in vitro. Method described in Sanchez et al. Drug Dev. Res. 1991, 22, 239-250.

The next data set deals with T3, dopamine D4 receptors (Homo sapiens, UniProt P21917).
T3 sequence (P21917 1-419): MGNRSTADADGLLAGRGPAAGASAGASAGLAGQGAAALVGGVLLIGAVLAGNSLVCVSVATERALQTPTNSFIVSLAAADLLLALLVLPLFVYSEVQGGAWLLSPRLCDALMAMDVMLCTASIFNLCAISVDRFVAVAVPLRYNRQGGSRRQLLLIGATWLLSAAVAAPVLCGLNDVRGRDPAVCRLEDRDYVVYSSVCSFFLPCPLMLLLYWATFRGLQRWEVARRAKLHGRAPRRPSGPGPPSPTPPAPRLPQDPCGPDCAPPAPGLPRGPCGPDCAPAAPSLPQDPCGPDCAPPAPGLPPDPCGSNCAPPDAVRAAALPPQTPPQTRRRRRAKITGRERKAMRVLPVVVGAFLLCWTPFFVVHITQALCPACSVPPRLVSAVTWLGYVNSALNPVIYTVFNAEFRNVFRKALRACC
To be noted: various in vitro efficacy assays, Gazi et al.; cited from earlier work.

Setting [2] is: [3H]Ketanserin 0.50 nM, membranes from rat brain (cortex), read-out: 5-HT2A-binding (IC50).
Setting [3] is: [3H]Ketanserin 0.50 nM, membranes from rat brain (cortex).

The text below walks through data of patent US20030232822A1, “Indole derivatives useful for the treatment of CNS disorders” (H. Lundbeck A/S, priority 2000, published 2003).

Molecules are shown by their SMILES. Structures can show the parent of a compound that is named as a salt. Where two headings read alike, the source gives them in different places.

As usually defined, the IC50 is the concentration needed to halve the response being measured. As usually defined, the melting point is the temperature of the solid-liquid transition. What is called inhibition is the relative decrease from the control value, in per cent.

T2 sequence (P14842 whole entry): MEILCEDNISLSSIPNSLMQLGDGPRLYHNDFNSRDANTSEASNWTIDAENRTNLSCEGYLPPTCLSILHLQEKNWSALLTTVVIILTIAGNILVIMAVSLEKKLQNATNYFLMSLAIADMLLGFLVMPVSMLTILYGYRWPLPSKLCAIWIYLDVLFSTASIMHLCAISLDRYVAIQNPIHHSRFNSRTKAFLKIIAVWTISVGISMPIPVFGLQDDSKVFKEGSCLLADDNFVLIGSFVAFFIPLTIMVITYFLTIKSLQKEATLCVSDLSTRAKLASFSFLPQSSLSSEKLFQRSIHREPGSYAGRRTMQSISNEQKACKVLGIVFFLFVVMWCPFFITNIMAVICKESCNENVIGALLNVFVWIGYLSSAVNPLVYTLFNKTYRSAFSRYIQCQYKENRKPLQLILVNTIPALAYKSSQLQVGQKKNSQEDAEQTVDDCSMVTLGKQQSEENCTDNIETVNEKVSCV

In the case of `c1ccc2c(c1)CCCN2CCCN1CCN(c2ccc3[nH]ccc3c2)CC1` [Compound 4b, 5-{4-[3-(3,4-Dihydro-2H-quinolin-1-yl)propan-1-yl]piperazin-1-yl}-1H-indole], the IC50 was determined as 8.8 nM in data set [1] and 19 nM on 5-HT2A receptors (setting [2]).

Take `O=C1CCc2ccccc2N1CCCN1CC=C(c2ccc3[nH]ccc3c2)CC1` [Compound 2e, 5-{1-[3-(2-Oxo-3,4-dihydro-2H-quinolin-1-yl)propan-1-yl]-3,6-dihydro-2H-pyridin-4-yl}-1H-indole]: the IC50 in data set [1] stood at 0.97 nM; at 5-HT2A receptors it was 6.6 nM.

Take `c1ccc2c(c1)CCCN2CCCN1CCN(c2ccc3[nH]ccc3c2)CC1` [Compound 4a, 5-{4-[3-(3,4-Dihydro-2H-quinolin-1-yl)propan-1-yl]piperazin-1-yl}-1H-indole]: the figures for the half-maximal inhibitory concentration (IC50) (in data set [1]; on 5-HT2A receptors (setting [2])) were 2.6 nM and 27 nM, respectively.

With `O=C1CCc2ccccc2N1CCCN1CCN(c2ccc3[nH]ccc3c2)CC1` [Compound 2a, 5-{4-[3-(2-Oxo-3,4-dihydro-2H-quinolin-1-yl)propan-1-yl]piperazin-1-yl}-1H-indole], the 50% inhibitory concentration (IC50) in data set [1] amounted to 3.2 nM; at 5-HT2A receptors (setting [2]) it was 13 nM.

Take `O=C1CCc2ccccc2N1CCCN1CCC(c2ccc3[nH]ccc3c2)CC1` [Compound 2f, 5-{1-[3-(2-Oxo-3,4-dihydro-2H-quinolin-1-yl)propan-1-yl]piperidin-4-yl}-1H-indole]: the IC50 in data set [1] came out at 1.6 nM; at 5-HT2A receptors (setting [2]), 22 nM.

On to `O=C1CCc2ccccc2N1CCCN1CCN(c2ccc3cc[nH]c3c2)CC1` [Compound 2c], for which, in data set [1], the “D4-binding (% inhibition)” value came out at 94% at 50 nM. Further, at 5-HT2A receptors (setting [2]), the IC50 stood at 32 nM.

As for `O=C1c2ccccc2CCN1CCCN1CCN(c2ccc3[nH]ccc3c2)CC1` [Compound 3b], the “D4-binding (% inhibition)” value in data set [1] is given as 78% at 50 nM. Further, the IC50 on 5-HT2A receptors (setting [2]) was 90 nM.

The molecule `O=C(CCCN1CCN(c2ccc3[nH]ccc3c2)CC1)N1CCc2ccccc2C1` [Compound 5b, 5-{4-[4-(3,4-Dihydro-1H-isoquinolin-2-yl)-4-oxobutan-1-yl]piperazin-1-yl}-1H-indole] came in with a melting point of 122 to 125 °C. Also, in data set [1], the “D4-binding (% inhibition)” value is on record as 81% at 50 nM. In addition, the IC50 at 5-HT2A receptors (setting [2]) came out at 4 nM.

Take `O=C1c2ccccc2CCN1CCCCN1CCN(c2ccc3[nH]ccc3c2)CC1` [Compound 3c]: the “D4-binding (% inhibition)” value in data set [1] amounted to 56% at 50 nM. Moreover, the “5-HT2A-binding (% inhibition)” value at 5-HT2A receptors (setting [3]) is listed as 93% at 100 nM.

As for `CC(C)Oc1cccnc1N(C)C1CCN(Cc2ccccc2)CC1` [Compound U-101958], at dopamine D4 receptors, the “Functional activity at D4 receptor (literature)” value is listed as “partial D4 receptor agonists”.

`O=C1COc2ccccc2N1CCCCN1CCN(c2ccc3[nH]ccc3c2)CC1` [Compound 3a, 5-{4-[4-(3-Oxo-3,4-dihydro-2H-1,4-benzoxazin-4-yl)butan-1-yl]piperazin-4-yl}-1H-indole]: the “D4-binding (% inhibition)” value in data set [1] was 56% at 50 nM. At 5-HT2A receptors (setting [3]), the “5-HT2A-binding (% inhibition)” value worked out at 89% at 100 nM.

Consider `O=C1CCc2ccccc2N1CCCCN1CCN(c2ccc3cc[nH]c3c2)CC1` [Compound 2d, 6-{4-[4-(2-Oxo-3,4-dihydro-2H-quinolin-1-yl)butan-1-yl]piperazin-1-yl}-1H-indole], for which the “D4-binding (% inhibition)” value in data set [1] came out at 58% at 50 nM. On 5-HT2A receptors, the inhibition at 0.1 µM was 46%.

On to `O=C(CCN1CCN(c2ccc3[nH]ccc3c2)CC1)N1CCc2ccccc2C1` [Compound 5a, 5-{4-[3-(3,4-Dihydro-1H-isoquinolin-2-yl)-3-oxopropan-1-yl]piperazin-1-yl}-1H-indole], for which the “D4-binding (% inhibition)” value in data set [1] is reported as 73% at 50 nM. In addition, at 5-HT2A receptors, the inhibition at 0.1 µM amounted to 29%.

The molecule `O=C1CCc2ccccc2N1CCCCN1CCN(c2ccc3[nH]ccc3c2)CC1` (as salt: hydrochloride) [Compound 2b, 5-{4-[4-(2-Oxo-3,4-dihydro-2H-quinolin-1-yl)butan-1-yl]piperazin-1-yl}-1H-indole] came in with a melting point of 233 to 236 °C.

In the case of `O=C1CCc2ccccc2N1CCCCN1CCN(c2ccc3[nH]ccc3c2)CC1` [Compound 2b, 5-{4-[4-(2-Oxo-3,4-dihydro-2H-quinolin-1-yl)butan-1-yl]piperazin-1-yl}-1H-indole], the figures for the IC50 (in data set [1]; at 5-HT2A receptors (setting [2])) were 18 nM and 17 nM, respectively.

Take `O=C1CCc2ccccc2N1CCN1CCN(c2ccc3[nH]ccc3c2)CC1` [Compound 1, 5-{4-[2-(2-Oxo-3,4-dihydro-2H-quinolin-1-yl)ethyl]piperazin-1-yl}-1H-indole]: the “D4-binding (% inhibition)” value in data set [1] was 90% at 50 nM. On 5-HT2A receptors (setting [2]), the IC50 was 29 nM.
